Assay results published in PubChem BioAssay AID1250 (SRMLSC, 2008).
Calls of active or inactive are those of the source.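 How the source made its calls: active means inhibition of at least 30% at one or more tested concentrations; inactive means inhibition below 30% at every dose.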

Assay: inhibitors of Bluetongue virus cytopathic effect, confirmation, arbovirus, BSR cells (AID 1250)
Conditions: BSR cells, Bluetongue virus CPE, ATP luminescence, 72 h; at 20 µM (top of the series)

Compound | CPE inhibition
O=c1oc(-c2ccccc2)nc2sc3c(c12)CCCC3 | 24.9% (inactive)
CCCc1cc2c(OC(=O)CC)c(-c3ccc(C(=O)OCC)o3)c(=O)oc2cc1OC | 19.6% (inactive)
O=[N+]([O-])c1cccc(/C=N\N=C2c3ccccc3-c3ccccc32)c1O | 22.2% (inactive)
COCCn1c(SCc2nc3scc(-c4ccc(Cl)cc4)c3c(=O)[nH]2)nnc1-c1cccc(C)c1 | 17.4% (inactive)
CSc1nc(-c2ccc(Cl)cc2Cl)[nH]c(=O)c1C#N | 24.3% (inactive)
CCCN(CCC)C(=O)CSc1nc2c(sc(=S)n2-c2ccc(OCC)cc2)c(=O)[nH]1 | 28.7% (inactive)
C=CCc1cccc2cc(C(=O)Nc3ccccc3C(=O)O)c(=O)oc12 | 17.4% (inactive)
O=C(Nc1nc2ccccc2s1)c1ccc(N2CCCCC2)c([N+](=O)[O-])c1 | 22.1% (inactive)
N=C1/C(=C/c2ccc(-c3cccc(C(=O)O)c3)o2)C(=O)N=C2SC=C(c3ccccc3)N12 | 16.8% (inactive)
O=c1/c(=C/c2ccc(O)cc2)sc2n1CCCN=2 | 1.41% (inactive)
CC(C)CSC1=NSC2=NC(=O)/C(=C\c3cccs3)C(=N)N12 | 28.6% (inactive)
COCCN1C(=O)/C(=C/c2ccc(Oc3ccc([N+](=O)[O-])cn3)c(OC)c2)SC1=Nc1ccccc1 | 25.6% (inactive)
O=[N+]([O-])c1ccc(-c2c(O)c3ccccc3c3nc4ccccc4nc23)cc1 | 25.8% (inactive)
COc1ccc(OC)c(/C=N\NC(=O)CC(=O)NCCc2ccccc2)c1 | -1.6% (inactive)
COc1ccccc1NC(=O)C12CC3CC(C1)CC(c1ccc(C)cc1)(C3)C2 | 18.9% (inactive)
Nc1[nH]nc2nc(NCc3ccccc3)c3c(c12)CCN(Cc1ccccc1)C3 | 10.8% (inactive)
CCN(CC)C(=O)CSC1=N/C(=C/c2ccco2)C(=O)N1c1ccc(OC)c(Cl)c1 | 13.3% (inactive)
N#CCCN(Cc1cccnc1)C(=S)Nc1ccc(OC(F)F)cc1 | 3.08% (inactive)
O=C(CSCc1ccc(Cl)cc1)Nc1cccc(C(=O)Nc2ccccc2C(=O)O)c1 | 23.5% (inactive)
Cc1[nH]c2ccccc2c1C1=CCNCC1 | 3.08% (inactive)
COc1ccc(NC(=O)C(=O)N/N=C/c2cc(C)n(-c3cccc(Cl)c3Cl)c2C)c(OC)c1 | 20.7% (inactive)
Cc1nnc2sc(SCc3cccc(Cl)c3)nn2c1=O | 14.2% (inactive)
COCCn1c(SCC(=O)Nc2cc(Cl)ccc2OC)nc2c(c1=O)SC(C)C2 (configuration not stated) | 17.7% (inactive)

Compound | CPE inhibition
COCCCNCC1C(Oc2ccc(Cl)cc2)C(=O)N1c1ccccc1C (configuration not stated) | 14.4% (inactive)
COc1cc2c(cc1NC(=O)CC1SC(N3CCCC3)=NC1=O)oc1ccccc12 (configuration not stated) | 13.7% (inactive)
Cc1ccc(N2C(=O)C3CC(c4ccccc4)=C4C5C=CC(C6C(=O)N(c7ccc(C)cc7)C(=O)C56)C4C3C2=O)cc1 (configuration not stated) | 11.8% (inactive)
C/C(=N\Nc1nc2ccccc2[nH]1)c1ccc2c(c1)OCO2 | 8.76% (inactive)
C/C(=N\NC(=O)c1c(Cl)c(C)nn1C)c1ccc(NC(=O)c2ccncc2)cc1 | 17.7% (inactive)
CCSc1nnc(NC(=O)c2ccc(Br)s2)s1 | 16.8% (inactive)
COc1ccccc1N1CCN(Cc2cc(C)c(C)cc2O)CC1 | 25.1% (inactive)
Cc1nc(NS(=O)(=O)c2ccccc2C)c2c3c(sc2n1)CCC3 | 27.6% (inactive)
Cc1ccc(C(=O)Nc2ccccc2SCC2CSc3nc4ccccc4c(=O)n32)cc1 (configuration not stated) | 14.6% (inactive)
CN(C)C(=O)COC(=O)c1ccccc1Nc1ccc(SC(F)F)cc1 | 23% (inactive)
CC(C)(C)C1CCc2c(sc(NC(=O)C3CC=CCC3C(=O)O)c2C#N)C1 (configuration not stated) | 26.8% (inactive)
OC(CNC1CCCCC1)CNC1CCCCC1 | 7.57% (inactive)
Cn1cc([N+](=O)[O-])c(C(=O)NCc2cc3cc(Cl)ccc3[nH]2)n1 | 9.85% (inactive)
COc1ccc(-c2csc(Nc3ccc(S(=O)(=O)Nc4cc(C)on4)cc3)n2)cc1 | 14.2% (inactive)
CC1CCCN(C(=O)c2cccc(S(=O)(=O)Nc3cc(C(F)(F)F)ccc3Cl)c2)C1 (configuration not stated) | 28.2% (inactive)
O=C(Nc1scc(-c2ccc(F)cc2)c1C(=O)O)c1ccco1 | 10% (inactive)
O=C(Nc1ccccc1C(=O)O)c1cccc(NC(=O)c2ccc(Br)o2)c1 | 7.57% (inactive)
C=CCOc1ccc(Br)cc1/C=C1/SC(=Nc2ccc(C(=O)O)cc2)NC1=O | 10.2% (inactive)
O=C(O)/C(=C\c1ccc(-c2ccc(F)cc2)o1)c1ccccc1 | 24.5% (inactive)
COc1cccc(C(=O)Nc2cccc(C(=O)NC3=NN(c4c(Cl)cc(Cl)cc4Cl)C(=O)C3)c2)c1 | 18.8% (inactive)
Cc1csc(NC(=O)c2ccc(C)c(S(=O)(=O)N3CCCCC3)c2)n1 | 24.1% (inactive)
Cc1ccc2c(c1)c(Sc1ccccc1)c(CC(=O)O)n2C | -0.49% (inactive)
CC1=C(C(=O)OC2CCCCCCC2)C(c2cccc(O)c2)NC(=O)N1 (configuration not stated) | 7% (inactive)

Compound | CPE inhibition
Cc1ccc(CSc2nnc(NC(=O)C3COc4ccccc4O3)s2)cc1 (configuration not stated) | 26.6% (inactive)
CCOc1ccc(NC(=O)Nc2cc(-c3ccccc3)sc2C(=O)OC)cc1 | 14.7% (inactive)
CS(=O)(=O)C1=NSC2=NC(=O)/C(=C\c3cccn3-c3ccccc3Cl)C(=N)N21 | 8.16% (inactive)
Cc1cccc(C)c1Nc1nnc(SC/C(O)=C(\C#N)c2nc3ccccc3[nH]2)s1 | 16.8% (inactive)
COc1ccc(-c2noc(-c3ccccc3-c3ccccc3)n2)cc1OC | 10.8% (inactive)
Cc1ccc(NC(=O)c2cncc(Br)c2)c(O)c1 | 13.8% (inactive)
C=C(C)CN(CC)C(=O)CSc1nc(O)cc(=O)n1C1CCCC1 | -1.91% (inactive)
CCOC(=O)c1c(-c2ccccc2)csc1NC(=S)N(CC)CC | 10.8% (inactive)
O=C(CSCC(=O)N1CCCCC1)OCC(=O)c1c[nH]c2ccccc12 | -2.4% (inactive)
O=C(O)c1ccc(-c2nc(-c3ccc(Cl)cc3)cs2)cc1 | 16.2% (inactive)
COc1cc(C2N=C(c3ccccc3)NO2)cc(Br)c1O (configuration not stated) | 18.4% (inactive)
c1ccc(-c2csc3ncnc(NCCCN4CCOCC4)c23)cc1 | 4.19% (inactive)
Fc1ccccc1N1CCN(c2ncnc3[nH]ncc23)CC1 | 7.21% (inactive)
CCc1ccc(S(=O)(=O)c2ccc(-n3nc(C)cc3N)cc2)cc1 | 6.14% (inactive)
O=c1[nH]c(SCc2ccccc2)nnc1-c1ccccc1 | 3.2% (inactive)
Cc1ccc(S(=O)(=O)N2CCN(Cc3cc(C(C)C)ccc3O)CC2)cc1 | 15.9% (inactive)
CSc1ncc(Cl)c(C(=O)C(C#N)c2nc3c(C)cc(C)cc3c(=O)[nH]2)n1 (configuration not stated) | 20.1% (inactive)
O=C(Nn1c(SCc2cccc([N+](=O)[O-])c2)nc2ccccc2c1=O)c1ccccc1 | 29.8% (inactive)
O=Cc1ccc(OCc2ccccn2)cc1 | 2.77% (inactive)
COc1ccc2[nH]c(=O)c(CN(CCCN(C)C)C(=O)Nc3ccc(F)cc3)cc2c1 | 7.66% (inactive)
O=C(NNC(=O)c1cccs1)c1ccc([N+](=O)[O-])cc1 | 4.62% (inactive)
COc1ccc(CN(C(=O)CSc2nnc(-c3ccc(F)cc3)o2)c2ccc(F)cc2)cc1 | 21.3% (inactive)
N#C/C(=C\c1cn[nH]c1-c1ccc(Cl)cc1)C(=O)NCc1ccccc1 | 12.6% (inactive)

Compound | CPE inhibition
O=C(CSc1nccc(=O)[nH]1)N1N=C2/C(=C/c3ccco3)CCCC2C1c1ccco1 (configuration not stated) | 21.5% (inactive)
CCOC(=O)c1ccc(NC(=O)CC2S/C(=N/N=C/c3c[nH]c4ccccc34)NC2=O)cc1 (configuration not stated) | 11.7% (inactive)
O=C1c2ccccc2N2C(=O)c3ccccc3[C@H]2N1c1ccccc1 | 2.15% (inactive)
C=CCOc1c(Br)cc(/C=N/Nc2ccc(C(=O)O)cc2)cc1OCC | 14.1% (inactive)
COc1ccc2nc(NC(=O)C3=NN(c4ccccc4)C(=O)CC3)sc2c1 | -2.13% (inactive)
COc1ccc(-c2csc(NC(=O)Cc3cccc4ccccc34)c2C(=O)O)cc1 | 24.9% (inactive)
O=C(O)c1ccccc1N/N=C\c1ccnc2ccccc12 | 12.3% (inactive)
Cc1cccc(-n2c3nc(=O)[nH]c(=O)c-3cc3cc([N+](=O)[O-])ccc32)c1 | 16.1% (inactive)
Cc1ccc(O)c(-c2cc(C(=O)Nc3ccc(S(=O)(=O)Nc4nc(C)cc(C)n4)cc3)[nH]n2)c1 | 21.8% (inactive)
CN(C)Cc1c(O)c(Cl)cc2c3c(c(=O)oc12)CCCC3 | -0.25% (inactive)
CC1=NN(c2nc(-c3ccc(Cl)cc3)cs2)C(=O)C1 | 8.37% (inactive)
COc1ccc(C2=CC(c3ccc(C)cc3)n3nnnc3N2)cc1 (configuration not stated) | 6.94% (inactive)
CC(=O)Nc1ccc(-c2csc(NC(=O)c3ccc(C)o3)n2)cc1 | 27.8% (inactive)
CC1=NN2C(=N)/C(=C\c3ccc(SCc4ccccc4)o3)C(=O)N=C2S1 | 21.1% (inactive)
CCc1nnc(NC(=O)c2cc3ccccc3oc2=O)s1 | -0.17% (inactive)
CCN=c1scc(C)n1/N=C/c1cc(Br)c(O)c(Br)c1 | -2.38% (inactive)
CN(C(=O)c1coc(=O)c2ccccc12)c1ccc(Br)cc1 | 18.4% (inactive)
C#CCNC(=O)C1=C[C@H](c2cn(C(C)=O)c3ccccc23)C[C@H](OCc2ccc(CO)cc2)O1 | -0.3% (inactive)
CCCCN(CC)C(=O)CSc1nc2c(sc(=S)n2-c2ccc(OCC)cc2)c(=O)[nH]1 | 18.4% (inactive)
O=C(C1CC1)N1CCN=C1SCc1ccc(Cl)cc1 | 0% (inactive)
O=C(NCCN1C(=O)S/C(=C/c2cccnc2)C1=O)C1CC(=O)N(Cc2ccccc2)C1 (configuration not stated) | 3.69% (inactive)
CC(C)S(=O)(=O)c1nsc2nc(=O)c(/C=C3\C=Nc4ccccc43)c(N)n12 | 22% (inactive)
C/C(=N\NS(=O)(=O)c1ccccc1)c1cccc(NC(=O)c2cccc(Cl)c2)c1 | 15.9% (inactive)
